Source: patent US8765802B2, “Kinase inhibitors, compositions thereof, and methods of use therewith” (Provid Pharmaceuticals, Inc., priority 2007, dated 2014)

Molecular target: T1, Chk2 (Homo sapiens, UniProt O96017)
T1 construct: made in house; host or cells: E. coli BL21 Star (Invitrogen)
Assay: Chk2 inhibitor IMAP assay (high-throughput Chk2 screening assay)
Assay type: biochemical
Conditions: IMAP fluorescence polarization assay, 10 μM ATP
Method: Compounds set forth in Table 1 were tested in the Chk2 inhibitor IMAP assay described herein in Example 6.84. […] The letters given for the Chk2 EC50 values in Table 1 represent the following ranges: A=<100 nM; B=100-300 nM; C=300-1000 nM; D=1-10 μM; and E>10 μM.
Compounds can be screened for Chk2 inhibitory activity using a high-throughput screening assay based in the immobilized metal ion affinity-based fluorescence polarization (IMAP) assay developed by Molecular Devices. This assay is based on the high affinity binding of phosphate by immobilized metal (MIII) coordination complexes on nanoparticles. A fluorescein-labeled peptide substrate is used as the substrate for the kinase activity of Chk2 in the assay. The IMAP binding reagent stops the kinase reaction. The binding of the binding reagent results in a change in the rate of molecular motion of the peptide and causes an increase in the fluorescence polarization value observed for the fluorescein label attached to the end of the peptide. Thus, inhibition of Chk2 would result in a decrease in fluorescence polarization compared to control.
A specific protocol for screening Compounds for Chk2 inhibitory activity follows.
A Compound is supplied at 1 mM in 0.5 μl DMSO on 384 well plates (such as Greiner or Corning). After thawing, 5 μl DMSO is added to the drug plate. The drug plate is then incubated for 10 minutes to solubilize the Compound. An additional 19.5 μl of reaction buffer (10× stock prepared using 100 mM Tris-HCl, 100 mM MgCl2, 1% BSA, pH 7.2, stored at 4° C.)+1 mM DDT is added to bring the Compound to 4× final concentration. A positive control is also prepared at 4× final concentration. The following control wells are used: less enzyme control (all reagents except enzyme; 5 μl/well), less Compound control (all reagents except Compound; 5 μl/well), positive control (all reagents plus staurosporine at a final concentration of 5 μM; 5 μl/well).
Reagents are then added in the following order to give the following final concentration: 2.5 μl ATP/Chk2tide (Molecular Devices) (10 μM/100 nM final concentration), 1.25 μl Compound (5 μM final concentration inf 5.5% DMSO), and 1.25 μl Chk2 (1:500, 2.4 μg/mL final concentration).
Plates are covered and incubated at room temperature for 60 minutes.
IMAP binding reagent (Molecular Devices) is diluted 1:400 into binding buffer (Molecular Devices). 15 μl of this solution is then added to all wells and the plates are covered and incubated for 30 minutes.
Plates are read using a Tecan Ultra under the fluorescence polarization mode. Gain is set to the less enzyme and less Compound wells for each plate. Excitation 485 nm, emmission 535 nm, Z position 12519 and flashes 5 are used as settings. Raw data from the Tecan reader is imported into an access database for analysis.

T1 sequence (O96017 whole entry): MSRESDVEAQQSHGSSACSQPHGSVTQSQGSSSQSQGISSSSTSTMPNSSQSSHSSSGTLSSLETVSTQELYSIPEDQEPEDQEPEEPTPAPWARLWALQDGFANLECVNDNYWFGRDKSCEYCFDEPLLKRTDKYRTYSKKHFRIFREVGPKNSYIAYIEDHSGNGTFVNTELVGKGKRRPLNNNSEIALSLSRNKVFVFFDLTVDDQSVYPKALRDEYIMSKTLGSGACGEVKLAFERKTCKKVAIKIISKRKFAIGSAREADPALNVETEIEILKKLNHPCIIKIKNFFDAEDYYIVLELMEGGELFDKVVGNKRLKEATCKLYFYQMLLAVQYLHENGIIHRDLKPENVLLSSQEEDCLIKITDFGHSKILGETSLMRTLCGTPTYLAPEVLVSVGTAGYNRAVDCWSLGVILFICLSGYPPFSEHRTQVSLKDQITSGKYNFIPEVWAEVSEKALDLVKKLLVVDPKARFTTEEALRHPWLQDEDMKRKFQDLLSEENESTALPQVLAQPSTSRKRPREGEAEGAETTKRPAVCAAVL

| EC50 [nM] | Compound |
| --- | --- |
| 1000 to 10000 | COc1cc2nc(NC(=O)c3ccc(/C(C)=N/NC(=N)N)cc3)sc2cc1OC [Compound 46] |
| 300 to 1000 | C/C(=N/NC(=N)N)c1ccc(NC(=O)Nc2ccc(/C(C)=N/N=C(\N)c3ccccn3)cc2)cc1 [Compound 14] |
| 300 to 1000 | COc1ccc2[nH]c(C(=O)Nc3ccc4c(c3)CCC/C4=N\NC(=N)N)cc2c1 [Compound 105] |
| 300 to 1000 | C/C(=N\NC(=N)N)c1ccc(NC(=O)c2cc3ccc(C)cc3[nH]2)cc1 [Compound 93] |
| 1000 to 10000 | C/C(=N\NC(=N)N)c1ccc(NC(=O)c2cc3c(ccc4ccccc43)[nH]2)cc1 [Compound 107] |
| 1000 to 10000 | C/C(=N\NC(=N)N)c1ccc(NC(=O)Nc2ccc(/C(=N/NC(=N)N)c3ccccc3)cc2)cc1 [Compound 54] |
| 1000 to 10000 | C/C(=N\NC(=N)N)c1ccc(NC(=O)c2cc3ccccc3o2)cc1 [Compound 52] |
| < 100 | C/C(=N\NC(=N)N)c1ccc(NC(=O)c2cc3cc(C(CC(C)C)=NNC(=N)N)ccc3[nH]2)cc1 [Compound 130] |
| > 10000 | COc1cccc2sc(NC(=O)c3ccc(/C(C)=N\NC(=N)N)cc3)nc12 [Compound 44] |
| 1000 to 10000 | C/C(=N\NC(=N)N)c1ccc(NC(=O)Nc2ccc(C)cc2)cc1 [Compound 50] |
| 100 to 300 | CC(=O)c1ccc(NC(=O)Nc2ccc(/C(C)=N/NC(=N)N)cc2)cc1 [Compound 36] |
| 1000 to 10000 | C/C(=N\NC(=N)N)c1ccc(NC(=O)c2cc3cc(Cl)ccc3[nH]2)cc1 [Compound 67] |
| 1000 to 10000 | C/C(=N/NC(=N)N)c1ccc(NC(=O)c2cc3cc(OC(F)(F)F)ccc3[nH]2)cc1 [Compound 33] |
| < 100 | CC(C)CC(=NNC(=N)N)c1ccc2[nH]c(C(=O)Nc3ccc4cc[nH]c4c3)cc2c1 (single isomer, unassigned) [Compound 123] |
| 1000 to 10000 | C/C(=N\NC(=N)N)c1ccc2[nH]c(C(=O)Nc3cccc4[nH]ccc34)cc2c1 [Compound 108] |
| 300 to 1000 | CCC/C(=N/NC(=N)N)c1ccc(NC(=O)c2cc3cc(OC)ccc3[nH]2)cc1 (single isomer, unassigned) [Compound 26] |
| 300 to 1000 | C/C(=N/NC(=N)N)c1ccc(NC(=O)Nc2ccc(NC(=O)/C(C)=N/NC(=N)N)cc2)cc1 [Compound 12] |
| 300 to 1000 | C/C(=N/N=C(\N)c1ccccn1)c1ccc(NC(=O)Nc2ccc(/C(C)=N/N=C(\N)c3ccccn3)cc2)cc1 [Compound 13] |
| 1000 to 10000 | C/C(=N\NC(=N)N)c1ccc(NC(=O)Nc2ccc(Cl)cc2)cc1 [Compound 57] |
| > 10000 | C/C(=N\NC(=N)N)c1ccc2[nH]c(C(=O)Nc3ccc4cnccc4n3)cc2c1 [Compound 122] |
| < 100 | COc1ccc2[nH]c(C(=O)Nc3ccc(/C(C)=N/NC4=NCCN4)cc3)cc2c1 [Compound 23] |

| EC50 [nM] | Compound |
| --- | --- |
| > 10000 | CC(=NNC(=N)N)c1ccc(NC(=O)Nc2ccc(C(C)CNC(=N)N)cc2)cc1 (stereo not shown) [Compound 62] |
| 100 to 300 | COc1ccc2oc(C(=O)Nc3ccc(/C(C)=N/NC(=N)N)cc3)cc2c1 [Compound 78] |
| < 100 | CCC/C(=N\NC(=N)N)c1ccc(NC(=O)Nc2ccc(/C(C)=N/NC(=N)N)cc2)cc1 [Compound 1] |
| 100 to 300 | C/C(=N/NC(=N)N)c1ccc2[nH]c(C(=O)Nc3ccc(-n4ccnc4)cc3)cc2c1 [Compound 127] |
| < 100 | C/C(=N\NC(=N)N)c1ccc(NC(=O)Nc2ccc(NC(=O)Nc3ccc(/C(C)=N/NC(=N)N)cc3)cc2)cc1 [Compound 39] |
| 300 to 1000 | C/C(=N\NC(=N)N)c1ccc(NC(=O)c2cc3cc(O)ccc3[nH]2)cc1 [Compound 11] |
| > 10000 | COc1ccc2[nH]c(C(=O)Nc3ccc4c(c3)CC/C4=N\NC(=N)N)cc2c1 [Compound 110] |
| < 100 | C/C(=N\NC(=N)N)c1ccc(NC(=O)Nc2ccc(C#N)cc2)cc1 [Compound 20] |
| 300 to 1000 | C/C(=N\NC(=N)N)c1ccc(NC(=O)c2cc3ccccc3o2)cc1 [Compound 8] |
| 1000 to 10000 | C/C(=N\NC(=N)N)c1ccc2[nH]c(C(=O)Nc3ccc(N)cc3)cc2c1 [Compound 114] |
| 1000 to 10000 | C/C(=N\NC(=N)N)c1ccc(NC(=O)c2cc3ccccc3cn2)cc1 [Compound 58] |
| 1000 to 10000 | COc1ccc2nc(NC(=O)c3ccc(/C(C)=N/NC(=N)N)cc3)sc2c1 [Compound 43] |
| 1000 to 10000 | C/C(=N\NC(=N)N)c1ccc2[nH]c(C(=O)Nc3cc(C)ccn3)cc2c1 [Compound 102] |
| > 10000 | C/C(=N\NC(=N)N)c1ccc(NC(=O)c2nc3ccccc3[nH]2)cc1 [Compound 100] |
| 300 to 1000 | COc1cc2cc(C(=O)Nc3ccc(/C(C)=N/NC(=N)N)cc3)[nH]c2cc1N [Compound 99] |
| 300 to 1000 | CCNc1ccc2cc(C(=O)Nc3ccc(/C(C)=N/NC(=N)N)cc3)[nH]c2c1 [Compound 92] |
| < 100 | CCCC(=NNC(=N)N)c1ccc2[nH]c(C(=O)Nc3ccc4cc[nH]c4c3)cc2c1 (single isomer, unassigned) [Compound 112] |
| < 100 | C/C(=N\NC(=N)N)c1ccc(NC(=O)Nc2ccc(/C(C)=N/NC3=NCCN3)cc2)cc1 [Compound 16] |
| 300 to 1000 | CC(=NNC(=N)N)c1ccc(NC(=O)Nc2ccc3c(c2)CCC3=NNC(=N)N)cc1 [Compound 6] |
| 1000 to 10000 | C/C(=N\NC(=N)N)c1ccc2[nH]c(C(=O)Nc3ccc(C)cn3)cc2c1 [Compound 103] |
| 1000 to 10000 | COc1cc2cc(C(=O)Nc3ccc(/C(C)=N/NC(=N)N)cc3)[nH]c2cc1NC(C)=O [Compound 98] |

| EC50 [nM] | Compound |
| --- | --- |
| 100 to 300 | C/C(=N\NC(=N)N)c1ccc2[nH]c(C(=O)Nc3ccc4nc(C)ccc4c3)cc2c1 [Compound 125] |
| > 10000 | COc1ccc2[nH]nc(C(=O)Nc3ccc(/C(C)=N/NC(=N)N)cc3)c2c1 [Compound 42] |
| 1000 to 10000 | C/C(=N\NC(=N)N)c1ccc(NC(=O)c2c[nH]c3ccccc23)cc1 [Compound 2] |
| < 100 | CCCC(=NNC(=N)N)c1ccc(NC(=O)Nc2ccc(C(CCC)=NNC(=N)N)cc2)cc1 [Compound 3] |
| 1000 to 10000 | COc1cc2cc(C(=O)Nc3ccc(/C(C)=N/NC(=N)N)cc3)[nH]c2cc1OCc1ccccc1 [Compound 29] |
| 300 to 1000 | C/C(=N\NC(=N)N)c1ccc2[nH]c(C(=O)Nc3ccc4cc[nH]c4c3)cc2c1 [Compound 81] |
| 100 to 300 | C/C(=N\NC(=N)N)c1ccc2[nH]c(C(=O)Nc3ccc(N4CCNCC4)cc3)cc2c1 [Compound 49] |
| 1000 to 10000 | C/C(=N\NC(=N)N)c1ccc(NC(=O)c2ccc3c(c2)CCC/C3=N\NC(=N)N)cc1 [Compound 79] |
| 300 to 1000 | CC(=O)c1ccc(NC(=O)c2cc3cc(/C(C)=N/NC(=N)N)ccc3[nH]2)cc1 [Compound 72] |
| 300 to 1000 | CSc1ccc2cc(C(=O)Nc3ccc(/C(C)=N/NC(=N)N)cc3)[nH]c2c1 [Compound 91] |
| > 10000 | C/C(=N\NC(=N)N)c1ccc2[nH]c(C(=O)Nc3ccccn3)cc2c1 [Compound 104] |
| 300 to 1000 | C/C(=N/NC(=N)N)c1ccc(NC(=O)c2[nH]c3ccccc3c2Br)cc1 [Compound 30] |
| < 100 | CCC/C(=N/NC(=N)N)c1ccc(NC(=O)c2cc3cc(OC)ccc3[nH]2)cc1 (single isomer, unassigned) [Compound 24] |
| < 100 | C/C(=N\NC1=NCCN1)c1ccc(NC(=O)Nc2ccc(/C(C)=N/NC3=NCCN3)cc2)cc1 [Compound 15] |
| 300 to 1000 | C/C(=N\NC(=N)N)c1ccc(NC(=O)c2cc3ccccc3[nH]2)cc1 [Compound 7] |
| 100 to 300 | C/C(=N\NC(=N)N)c1ccc(NC(=O)Nc2ccc(Br)cc2)cc1 [Compound 37] |
| 1000 to 10000 | N=C(N)N/N=C1\CCc2cc(NC(=O)c3cc4cccc([N+](=O)[O-])c4[nH]3)ccc21 [Compound 96] |
| 300 to 1000 | C/C(=N\NC(=N)N)c1ccc(NC(=O)c2ccc(-c3cnc(N)nc3)cc2)cc1 [Compound 47] |
| 1000 to 10000 | COc1ccc2nc(C(=O)Nc3ccc(/C(C)=N/NC(=N)N)cc3)sc2c1 [Compound 82] |
| > 10000 | C/C(=N\NC(=N)N)c1ccc(NC(=O)c2cc3cccc(C(F)(F)F)c3[nH]2)cc1 [Compound 85] |
| > 10000 | C/C(=N\NC(=N)N)c1ccc(NC(=O)Nc2ccc(/C(=N/NC(=N)N)c3ccccc3)cc2)cc1 [Compound 55] |

| Compound | EC50 [nM] |
| --- | --- |
| CNC(=O)Oc1ccc2[nH]c(C(=O)Nc3ccc(/C(C)=N\NC(=N)N)cc3)cc2c1 [Compound 21] | 100 to 300 |
